Measurements as given in PMC9556824, “Design, synthesis and computational study of new benzofuran hybrids as dual PI3K/VEGFR2 inhibitors targeting cancer” (Scientific Reports, 2022).

Tests used:
human PI3Kα = human PI3Kα (Homo sapiens, UniProt P42336); test: Human PI3Kα enzyme inhibition assay (ELISA)
Experimental: PI3Kα and VEGFR-2 activity were verified by enzyme-linked immunosorbent assay (ELISA) assay technique. […] Then, the mean absorbance of each group of standard and tested compounds was determined. The standard curve was drawn on log–log paper with the absorbance on the Y-axis and the standard concentration on the X-axis.

[1] = tested on: mammary gland breast cancer (MCF-7); test: Antitumor screening using MTT assay; conditions: Homo sapiens; for IC50: MCF7, read-out: In-vitro cytotoxicity IC50 (µM) MCF-7
Text: (§2) Hepatocellular carcinoma (HePG2), mammary gland breast cancer (MCF-7), epithelioid carcinoma cervix cancer (Hela), and human prostate cancer were included on the panel (PC3). […] The cell lines were obtained from the American Type Culture Collection (ATCC) through VACSERA, a Cairo-based holding firm for biological goods and vaccines.
(§3) The panel consisted of hepatocellular carcinoma (HePG2), mammary gland breast cancer (MCF-7), epithelioid carcinoma cervix cancer (Hela) and human prostate cancer (PC3). Human lung fibroblast (WI38) was used to assay the cytotoxicity effect on normal cell. The cell lines were obtained from ATCC via Holding company for biological products and vaccines (VACSERA), Cairo, Egypt. The cytotoxic activity was defined as the concentration of the compound that causes 50% growth inhibition compared with the growth of untreated cells.

[2] = tested on: human lung fibroblast (WI38); test: In vitro cytotoxicity against human normal cell line (MTT); assay type: cell-based; conditions: Homo sapiens, WI-38, human normal cell line WI38; mean ± SD, n = 3
Text: (§1) The anticancer agent's selectivity for cancer cells is a critical consideration for any researcher, as it can decrease the molecule's adverse effects on normal human cells.

[3] = tested on: epithelioid carcinoma cervix cancer (Hela); test: Antitumor screening using MTT assay; conditions: Homo sapiens, HeLa; for IC50: read-out: In-vitro cytotoxicity IC50 (µM) Hela
[4] = tested on: Hepatocellular carcinoma (HePG2); test: Antitumor screening using MTT assay; assay type: cell-based, human; conditions: Homo sapiens; for IC50: mean ± SD, n = 3, read-out: In-vitro cytotoxicity IC50 (µM) HePG2
[5] = tested on: human prostate cancer (PC3); test: Antitumor screening using MTT assay; conditions: Homo sapiens; for IC50: read-out: In-vitro cytotoxicity IC50 (µM) PC3
Text: as §2, §3

[6] = In vitro cytotoxicity against human normal cell line (MTT); assay type: cell-based; conditions: human, WI38 human lung fibroblast cells (normal cell line), WI38, read-out: Average of Relative viability of cells (%)
Text: as §1

[7] = MCF7, read-out: Average of Relative viability of cells (%)
[8] = read-out: Average of Relative viability of cells (%)

Chain of human PI3Kα (P42336 whole entry): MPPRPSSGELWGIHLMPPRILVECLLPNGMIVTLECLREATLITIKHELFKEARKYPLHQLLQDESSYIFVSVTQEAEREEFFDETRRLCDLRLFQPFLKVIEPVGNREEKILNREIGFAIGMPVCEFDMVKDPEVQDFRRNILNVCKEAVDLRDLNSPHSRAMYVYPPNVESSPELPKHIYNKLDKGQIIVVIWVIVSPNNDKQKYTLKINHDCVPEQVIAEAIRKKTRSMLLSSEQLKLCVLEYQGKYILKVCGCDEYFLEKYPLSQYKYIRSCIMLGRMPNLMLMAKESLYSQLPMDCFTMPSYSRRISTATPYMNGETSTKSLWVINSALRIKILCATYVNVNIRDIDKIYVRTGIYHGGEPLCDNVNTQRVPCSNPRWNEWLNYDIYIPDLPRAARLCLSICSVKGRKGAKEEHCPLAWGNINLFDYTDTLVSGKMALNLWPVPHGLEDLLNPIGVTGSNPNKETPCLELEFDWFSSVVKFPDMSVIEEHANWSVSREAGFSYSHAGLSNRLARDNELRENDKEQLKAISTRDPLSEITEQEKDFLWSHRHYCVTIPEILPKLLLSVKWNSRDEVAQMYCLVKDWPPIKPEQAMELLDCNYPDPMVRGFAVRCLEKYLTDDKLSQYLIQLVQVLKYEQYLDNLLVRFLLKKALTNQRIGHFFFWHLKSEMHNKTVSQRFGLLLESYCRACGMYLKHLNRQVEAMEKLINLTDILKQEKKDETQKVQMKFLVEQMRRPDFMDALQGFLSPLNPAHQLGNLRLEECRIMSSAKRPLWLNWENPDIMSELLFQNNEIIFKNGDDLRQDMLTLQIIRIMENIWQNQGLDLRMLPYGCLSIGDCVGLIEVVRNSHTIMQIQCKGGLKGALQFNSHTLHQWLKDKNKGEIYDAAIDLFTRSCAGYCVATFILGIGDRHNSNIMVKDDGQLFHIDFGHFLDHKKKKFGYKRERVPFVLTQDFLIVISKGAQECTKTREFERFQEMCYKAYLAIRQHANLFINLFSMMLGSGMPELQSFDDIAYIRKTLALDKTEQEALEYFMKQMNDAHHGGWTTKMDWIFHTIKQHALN
Chain of human PI3Kα (P27986 whole entry partner): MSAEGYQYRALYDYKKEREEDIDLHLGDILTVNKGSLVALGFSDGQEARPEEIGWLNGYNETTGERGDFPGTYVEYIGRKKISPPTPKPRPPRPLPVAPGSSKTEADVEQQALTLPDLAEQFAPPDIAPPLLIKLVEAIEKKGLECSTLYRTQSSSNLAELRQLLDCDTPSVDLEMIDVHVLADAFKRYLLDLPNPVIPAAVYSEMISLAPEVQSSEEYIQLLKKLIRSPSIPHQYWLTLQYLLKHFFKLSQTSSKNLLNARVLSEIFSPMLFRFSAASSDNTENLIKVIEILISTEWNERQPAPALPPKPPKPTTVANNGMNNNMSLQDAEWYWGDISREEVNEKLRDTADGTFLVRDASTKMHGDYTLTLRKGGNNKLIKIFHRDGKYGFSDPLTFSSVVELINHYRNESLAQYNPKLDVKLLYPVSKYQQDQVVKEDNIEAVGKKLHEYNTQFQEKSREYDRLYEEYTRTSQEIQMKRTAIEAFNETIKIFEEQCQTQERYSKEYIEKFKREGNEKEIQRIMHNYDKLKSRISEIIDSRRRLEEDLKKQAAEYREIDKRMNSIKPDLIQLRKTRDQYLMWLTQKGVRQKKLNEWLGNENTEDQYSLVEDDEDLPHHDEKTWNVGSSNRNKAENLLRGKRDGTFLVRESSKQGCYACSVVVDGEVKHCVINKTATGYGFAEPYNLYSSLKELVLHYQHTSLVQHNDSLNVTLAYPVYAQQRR

**Q.** With `O=c1cc(N2CCOCC2)oc2c(-c3ccccc3)cccc12` [LY294002, reference compound] as the compound, how does the PI3K-α %inh (human PI3Kα; conc 0.1 (unit not given)) read?
**A.** Its PI3K-α %inh is 8.66%.

**Q.** What about the PI3K-α %inh (human PI3Kα; conc 1 (unit not given)) of the same compound?
**A.** The PI3K-α %inh was 21.2%.

**Q.** And the PI3K-α %inh (human PI3Kα; conc 10 (unit not given))?
**A.** Its PI3K-α %inh is 54.8%.

**Q.** And the PI3K-α %inh (human PI3Kα; conc 100 (unit not given))?
**A.** Its PI3K-α %inh is 76.7%.

**Q.** Which melting point does the source give for `C/C(=N\N=C\c1ccc(O)cc1)c1cc2ccccc2o1` [Compound 11, (E)-1-[1-(benzofuran-2-yl)ethylidene]-2-((E)-4-hydroxybenzylidene)hydrazine] here?
**A.** The melting point was 154 to 156 °C.

**Q.** What about the IC50 [1] of the same compound?
**A.** Its IC50 is over 100 µM.

**Q.** What about the IC50 [2] of the same compound?
**A.** The IC50 was 43.2 ± 2.9 µM.

**Q.** And the IC50 [3]?
**A.** Its IC50 is 89.3 ± 3.2 µM.

**Q.** And the IC50 [4]?
**A.** Its IC50 is 84.9 ± 3.2 µM.

**Q.** What about the IC50 [5] of the same compound?
**A.** The IC50 was over 100 µM.

**Q.** For `C\C(=N/N=C/C=C/c1ccccc1)c1cc2ccccc2o1` [Compound 12], which melting point is on record?
**A.** Its melting point is 141 to 143 °C.

**Q.** What about the viability at 1.56 µM [1, 7] of the same compound?
**A.** The viability at 1.56 µM was 100%.

**Q.** And the viability at 3.125 µM [1, 7]?
**A.** Its viability at 3.125 µM is 100%.

**Q.** What about the viability at 6.25 µM [1, 7] of the same compound?
**A.** The viability at 6.25 µM was 94.7%.

**Q.** And the viability at 12.5 µM [1, 7]?
**A.** Its viability at 12.5 µM is 81.8%.

**Q.** And the viability at 25 µM [1, 7]?
**A.** Its viability at 25 µM is 70.2%.

**Q.** What about the viability at 50 µM [1, 7] of the same compound?
**A.** The viability at 50 µM was 57.1%.

**Q.** And the viability at 100 µM [1, 7]?
**A.** The viability at 100 µM was 43.2%.

**Q.** What about the IC50 [1] of the same compound?
**A.** The IC50 was 68.4 ± 3.6 µM.

**Q.** What about the IC50 [2] of the same compound?
**A.** The IC50 was 56.5 ± 3.2 µM.

**Q.** And the viability at 1.56 µM ([6]; Conc. 1.56 µM)?
**A.** The viability at 1.56 µM was 100%.

**Q.** And the viability at 3.125 µM ([6]; Conc. 3.125 µM)?
**A.** Its viability at 3.125 µM is 100%.

**Q.** And the viability at 6.25 µM ([6]; Conc. 6.25 µM)?
**A.** Its viability at 6.25 µM is 91.3%.

**Q.** And the viability at 12.5 µM ([6]; Conc. 12.5 µM)?
**A.** Its viability at 12.5 µM is 78.1%.

**Q.** What about the viability at 25 µM ([6]; Conc. 25 µM) of the same compound?
**A.** The viability at 25 µM was 61.9%.

**Q.** And the viability at 50 µM ([6]; Conc. 50 µM)?
**A.** Its viability at 50 µM is 52.5%.

**Q.** What about the viability at 100 µM ([6]; Conc. 100 µM) of the same compound?
**A.** Its viability at 100 µM is 41%.

**Q.** What about the viability at 1.56 µM [3, 8] of the same compound?
**A.** Its viability at 1.56 µM is 100%.

**Q.** And the viability at 3.125 µM [3, 8]?
**A.** Its viability at 3.125 µM is 100%.

**Q.** And the viability at 6.25 µM [3, 8]?
**A.** Its viability at 6.25 µM is 86.6%.

**Q.** And the viability at 12.5 µM [3, 8]?
**A.** The viability at 12.5 µM was 72.3%.

**Q.** And the viability at 25 µM [3, 8]?
**A.** The viability at 25 µM was 59.2%.

**Q.** What about the viability at 50 µM [3, 8] of the same compound?
**A.** Its viability at 50 µM is 41.8%.

**Q.** And the viability at 100 µM [3, 8]?
**A.** Its viability at 100 µM is 34.1%.

**Q.** And the IC50 [3]?
**A.** Its IC50 is 39.8 ± 2.7 µM.

**Q.** What about the viability at 1.56 µM ([4]; Conc. 1.56 µM, read-out: Average of Relative viability of cells (%)) of the same compound?
**A.** The viability at 1.56 µM was 100%.

**Q.** And the viability at 3.125 µM ([4]; Conc. 3.125 µM, read-out: Average of Relative viability of cells (%))?
**A.** The viability at 3.125 µM was 100%.

**Q.** And the viability at 6.25 µM ([4]; Conc. 6.25 µM, read-out: Average of Relative viability of cells (%))?
**A.** The viability at 6.25 µM was 100%.

**Q.** What about the viability at 12.5 µM ([4]; Conc. 12.5 µM, read-out: Average of Relative viability of cells (%)) of the same compound?
**A.** The viability at 12.5 µM was 91.3%.

**Q.** And the viability at 25 µM ([4]; Conc. 25 µM, read-out: Average of Relative viability of cells (%))?
**A.** The viability at 25 µM was 70.5%.

**Q.** And the viability at 50 µM ([4]; Conc. 50 µM, read-out: Average of Relative viability of cells (%))?
**A.** The viability at 50 µM was 54%.

**Q.** And the viability at 100 µM ([4]; Conc. 100 µM, read-out: Average of Relative viability of cells (%))?
**A.** Its viability at 100 µM is 39.4%.

**Q.** What about the IC50 [4] of the same compound?
**A.** Its IC50 is 62 ± 3.2 µM.

**Q.** And the viability at 1.56 µM [5, 8]?
**A.** The viability at 1.56 µM was 100%.

**Q.** And the viability at 3.125 µM [5, 8]?
**A.** The viability at 3.125 µM was 100%.

**Q.** And the viability at 6.25 µM [5, 8]?
**A.** The viability at 6.25 µM was 98.4%.

**Q.** What about the viability at 12.5 µM [5, 8] of the same compound?
**A.** Its viability at 12.5 µM is 86.6%.

**Q.** What about the viability at 25 µM [5, 8] of the same compound?
**A.** The viability at 25 µM was 71.7%.

**Q.** What about the viability at 50 µM [5, 8] of the same compound?
**A.** Its viability at 50 µM is 55%.

**Q.** And the viability at 100 µM [5, 8]?
**A.** Its viability at 100 µM is 47.3%.

**Q.** And the IC50 [5]?
**A.** The IC50 was 74.4 ± 3.9 µM.
